Columns and labels:
GLP-1 receptor = biological target: T1, GLP-1 receptor (Homo sapiens, UniProt P43220); test: cAMP experiment, GLP-1 receptor (HEK293 host cell line); assay type: cell-based; conditions: HEK293 host cells
T1 construct: expressed in transfected cells; host or cells: HEK293 cell line

db/db mice [1] = test: Hypoglycemic effect of BG121 and BG128 in db/db mice (Experimental Example 2); assay type: in vivo; conditions: for glycosylated hemoglobin content in serum vs solvent control / insulin content in serum vs solvent control: 25 days after administration; for glycosylated hemoglobin content in serum vs solvent control: FIG. 6; for insulin content in serum vs solvent control: FIG. 7; for body weight vs solvent control: day 4, 7, 10, 13, 16, 19, 22, FIG. 5; for non-fasting blood glucose vs solvent control: FIG. 3
Experimental: Germline: BKS mice (db/db mice); source: Gempharmatech Co., Ltd.; license key: SCXK (SU) 2018-0008; certificate number: 202100117; grade: SPF; number: 32; gender: male; age: 8 weeks (at the beginning of modeling); animal identification: ear tag.
Feeding conditions: temperature: 22±2° C.; humidity: 40%-70%; lighting: artificial lighting simulates day and night changes; drinking water: free to drink; feed: mouse breeding feed, wherein the mice were fasted overnight before determining fasting blood sugar, and the mice were free to eat for the rest of the time.
Formulation of BG128 (1 mg/ml) stock solution: a certain amount of BG128 was weighed, an appropriate volume of solvent (20 mM citric acid, pH 7.0) was added, and the mixture was sub-packaged at 100 μl/tube and frozen at −80° C. for later use;
BG128 (0.0151 mg/ml, for 30 nmol/kg administration): 90 μL of the 1 mg/mL stock solution was taken and added to a 10 mL EP together with 810 μL of the solvent, the mixture was homogeneously mixed in a vortex mixer, then 5044 μL of the solvent was added, and the mixture was homogeneously mixed in a vortex mixer and used up on the same day;
BG128 (0.0050 mg/ml, for 10 nmol/kg administration): 2 mL of BG128 ([…]) were taken, and 4 mL of the solvent was added, and the mixture was homogeneously mixed in a vortex mixer and used up on the same day.
32 SPF-grade male BKS-DB mice (db/db mice) were fed adaptively for 1 week. […] During the experiment, the experimenters need to observe the signs and health conditions of the experimental animals. Any abnormal manifestations of animals, such as pain, depression, decreased activity, etc., should be recorded in the original experimental records. If the abnormal manifestations of the experimental animals exceed the regulations in relevant documents for animal welfare, the animal can be euthanized after being notified.
Modeling method: db/db mice would develop spontaneous type 2 diabetes after being fed for 6 weeks, and the mice would develop symptoms, such as obesity, insulin resistance and hyperglycemia;
Mode of administration: it was intended to use subcutaneous injection by the clinical route of administration, the volume of administration is: 10 mL/kg, once every 3 days, for 22 consecutive days;
Fasting blood glucose determination: according to the above-mentioned animal grouping and administration dose, the fasting blood glucose of the mice was determined two days before the first administration and the body weight was determined. […] The fasting blood glucose levels were determined on day 7, 13, 19, and 25 after the first administration (changing the bedding and fasting before the fasting blood glucose determination), and the mice were fasted;
Non-fasting blood glucose determination: the blood glucose was determined at time points of 1, 3, 6, 24, 48, and 72 hours after the first administration;
Body weight determination: determined twice a week;
Food intake determination: determined twice a week.
After 25 days of administration, blood samples were collected by picking the eyeballs, and the serum insulin and glycosylated hemoglobin contents of the mice were determined respectively.
All reported determination data was calculated using GraphPad prism8.0 software for group mean and standard deviation.

db/db mice [2] = test: Inhibitory effect of BG128 on hyperglycemia in db/db mice (Experimental Example 3); assay type: in vivo
Experimental: 55 6-8 week-old SPF-grade male db/db mice were purchased from Zhejiang Vital River Experimental Animal Technology Co., Ltd.
According to the dosage regimen in Table 7, a certain amount of Tirzepatide and BG128 were weighed and the vehicle (pH=7.0, 20 mM sodium citrate buffer) was added to formulated to the corresponding concentration. The formulation was performed once every 7 days, and the formulated mixture was sub-packaged and stored at 2° C.-8° C. in the dark.
Before the administration, according to the body weight and fasting blood glucose, the animals were grouped into: db/db-ND group, Tirzepatide—0.15 mg/kg group, BG128—0.05 mg/kg group, BG128—0.15 mg/kg group and BG128—0.5 mg/kg group, and each group have 11 animals; and see Table 7 for details.
The day of the first administration was recorded as d1, and the time was recorded by analogy; Tirzepatide and BG128 were administered once every three days, and the time points were d1, d4, d7, d10, d13, d16, d19, d22, d25 and d28, a total of 10 administrations; and see Table 7 for details.
Weighing: animals were weighed before administration once every three days until the end of the experiment.
The food intake of the animals was recorded starting at three days before the grouping for administration until the end of the experiment. The remaining amount was weighed before administration each time.
1) Non-fasting blood glucose determination: first administration 0 h (pre), 1 h, 2 h, 3 h, 6 h, 24 h, 48 h, 72 h;
2) Fasting blood glucose: the determination dates were respectively d-1 (before grouping), d7, d13, d19, d25 and d31. The animals were fasted for 6 hours, and the fasting blood glucose was determined before administration.
3 days after the last administration, the animals were weighed and fasted for 6 hours, and the fasting blood glucose of the animals was determined; after anesthesia, a portion of non-anticoagulated whole blood was collected through the orbital venous plexus, stood at room temperature for 30 minutes, and centrifuged at 5000 rpm for 5 minutes, the serum was separated and frozen at −80° C. for the determination of serum insulin content; a portion of anticoagulated whole blood was collected for the determination of HbA1c content. The serum insulin was determined by Elisa method.
The data was organized in Excel 2017 and Prism6.0, and the data was expressed as Mean±SEM (standard error). One-way ANOVA was used for analysis, and Tukey was selected as the analysis method for comparing significance of difference between groups; when the two groups were compared, T-test was used for two-tailed test between the two groups. […]

[3] = 10 nmol/kg s.c. once every 3 days
[4] = 30 nmol/kg s.c. once every 3 days
[5] = 0.5 mg/kg s.c. once every three days, anticoagulated whole blood, end of experiment, Mean ± SEM

T1 sequence (P43220 24-463, species assumed): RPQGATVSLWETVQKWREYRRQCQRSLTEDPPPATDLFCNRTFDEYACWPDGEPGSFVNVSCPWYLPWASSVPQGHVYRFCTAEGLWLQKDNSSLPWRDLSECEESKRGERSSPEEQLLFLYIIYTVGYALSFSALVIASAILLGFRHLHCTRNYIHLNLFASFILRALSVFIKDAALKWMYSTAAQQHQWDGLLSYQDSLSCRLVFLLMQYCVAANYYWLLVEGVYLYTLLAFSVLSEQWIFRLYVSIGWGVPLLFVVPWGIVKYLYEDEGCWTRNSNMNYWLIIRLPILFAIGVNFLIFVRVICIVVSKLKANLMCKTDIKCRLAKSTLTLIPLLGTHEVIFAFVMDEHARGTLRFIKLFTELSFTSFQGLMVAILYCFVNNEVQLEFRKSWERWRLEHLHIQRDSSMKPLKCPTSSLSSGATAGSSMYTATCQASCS

CNC(CCCCNC(=O)COCCOCCOCCNC(=O)COCCOCCOCCNC(=O)CCC(NC(=O)CC(=O)O)C(=O)O)C(N)=O (centres unmarked) [BG128]
EC50 (GLP-1 receptor): 0.11 nM
glycosylated hemoglobin content in serum vs solvent control (db/db mice [1]; [3]): no significant difference
insulin content in serum vs solvent control (db/db mice [1]; [3]): significantly lower than that in the solvent control group
body weight vs solvent control (db/db mice [1]; [3]): no significant difference
non-fasting blood glucose vs solvent control (db/db mice [1]; 10 nmol/kg s.c., 1, 3, 6, 24, 48 and 72 h after first administration): reduce the blood glucose at each time point after the administration in a dose dependent manner
glycosylated hemoglobin content in serum vs solvent control (db/db mice [1]; [4]): significantly lower than that in the BG121 (30 nmol/kg) administration group and the solvent control group
insulin content in serum vs solvent control (db/db mice [1]; [4]): significantly lower than that in the solvent control group
body weight vs solvent control (db/db mice [1]; [4]): significantly lower than that in the solvent control group and the BG121 (30 nmol/kg) administration group
fasting blood glucose vs solvent control (db/db mice [1]; 30 nmol/kg s.c. once every 3 days, day 19 and 25 after first administration, FIG. 4): significantly reduce the fasting blood glucose level
non-fasting blood glucose vs solvent control (db/db mice [1]; 30 nmol/kg s.c., 1, 3, 6, 24, 48 and 72 h after first administration): reduce the blood glucose at each time point after the administration in a dose dependent manner
HbA1C (db/db mice [2]; 0.15 mg/kg s.c. once every three days, anticoagulated whole blood, end of experiment, Mean ± SEM): 5.31 ± 0.19
HbA1C (db/db mice [2]; [5]): 4.68 ± 0.20
HbA1C% (db/db mice [2]; [5]): 3.33 ± 0.16^abde %
blood sugar suppression effect (non-fasting) compared with Tirzepatide (db/db mice [2]; within 72 h of the first administration, equal dose 0.15 mg/kg, FIG. 11): dose-dependent and better than that of positive drug Tirzepatide
